Assay results reported in patent publication US20240025919A1, “AZA-TETRACYCLIC OXAZEPINE COMPOUNDS AND USES THEREOF” (Genentech, Inc., priority 2022, published 2024).

Legend:
KRAS G12D = KRAS G12D (Homo sapiens (Human), UniProt P01116, G12D); assay: KRAS G12D LoEnz Biochemical Assay, BODIPY-GDP Exchange TR-FRET (SOS1-mediated nucleotide exchange); settings: read-out: KRas (G12D) GDP HTRF IC50
KRAS WT [1] = target: T1, KRAS WT (Homo sapiens (Human), UniProt P01116); assay: KRAS WT Biochemical Assay, BODIPY-GDP Exchange TR-FRET (Example 502; 0.06 nM KRAS WT, 15 nM GDP, 300 nM SOS1, 120-minute incubation); settings: read-out: KRas HTRF IC50
T1 sequence (P01116-2 other isoform, or with tags, fused parts or gaps): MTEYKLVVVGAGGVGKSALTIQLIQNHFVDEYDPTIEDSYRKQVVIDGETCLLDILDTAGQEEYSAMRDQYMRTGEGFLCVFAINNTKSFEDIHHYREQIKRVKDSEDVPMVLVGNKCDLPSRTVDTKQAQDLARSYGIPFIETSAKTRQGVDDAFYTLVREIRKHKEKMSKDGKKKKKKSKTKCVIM
Experimental: Example 502: KRAS WT Biochemical Assay, BODIPY-GDP Exchange TR-FRET. Biochemical compound potencies are assessed by evaluating inhibition of SOS1-mediated nucleotide exchange in KRAS WT. In this assay, the SOS1-promoted exchange of fluorescently-labeled GDP (BOPIDY-GDP) is monitored by time-resolved fluorescence resonance energy transfer (TR-FRET). Compounds solubilized in DMSO are dispensed as concentration series into 384-well white assay plates. A preformed complex of 0.06 nM biotin-tagged recombinant human KRAS WT, 15 nM GDP and 0.06 nM terbium-labeled streptavidin (CisBIO) prepared in 10 uL/well assay buffer (20 mM HEPES, pH 7.5, 50 mM NaCl, 10 mM MgCl2, 0.01% Tween-20 and 1 mM dithiothreitol) is added and allowed to incubate for 10-minutes at room temperature. The reaction is initiated with the addition of 5 uL 300 nM recombinant human SOS1 and 300 nM BODIPY-GDP in assay buffer. After a 120-minute incubation, the fluorescence is measured with excitation at 337 nm and emission at 490 and 520 nm. The TR-FRET ratio is determined as the fluorescence at 520 nm divided by the fluorescence at 490 nm multiplied by 10,000. The results are normalized to percent inhibition based on control samples: DMSO (0% inhibition) and control compound at a concentration that inhibits completely (100% inhibition). The normalized TR-FRET results are plotted against compound concentration, and the data are fit to a 4-parameter Hill equation to determine the IC50 values.

KRAS WT [2] = target: T1, KRAS WT; assay: KRAS WT Biochemical Assay, BODIPY-GDP Exchange TR-FRET (Example 501; 3 nM KRAS WT, 3 nM SOS1, 60-minute incubation); settings: read-out: KRas HTRF IC50
Summary of the method: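 SOS1-mediated exchange assay: 3 nM biotin-KRAS WT with terbium-streptavidin, started with 3 nM SOS1 and 300 nM BODIPY-GDP, HEPES pH 7.5 with MgCl2. TR-FRET (520/490 nm) read after 60 min; normalized to DMSO and full-inhibition control, IC50 from 4-parameter Hill fit.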

KRAS G12D, sequence (P01116-2 other isoform, or with tags, fused parts or gaps G12D): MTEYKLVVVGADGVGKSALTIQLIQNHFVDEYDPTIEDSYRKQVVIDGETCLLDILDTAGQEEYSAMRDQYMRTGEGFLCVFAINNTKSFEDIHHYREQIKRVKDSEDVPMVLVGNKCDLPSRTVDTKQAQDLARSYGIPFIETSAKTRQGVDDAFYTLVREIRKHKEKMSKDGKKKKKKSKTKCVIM

| Structure (SMILES) | IC50 (KRAS G12D) [nM] | IC50 (KRAS WT [1]) [nM] | IC50 (KRAS WT [2]) [nM] |
| --- | --- | --- | --- |
| Cc1c(F)c(N)cc(-c2nc3c4c(nc(OC[C@H]5C[C@@H]6COCCN65)nc4c2F)N2C[C@H]4CC[C@H](N4)[C@H]2[C@H](C)O3)c1C(F)(F)F (mixture of isomers) [159 (mixture), 5-((5S,5aS,6S,9R)-12-((4-Oxa-1-azabicyclo[4.2.0]octan-8-yl)methoxy)-1-fluoro-5-methyl-5a,6,7,8,9,10-hexahydro-5H-4-oxa-3,10a,11,13,14-pentaaza-6,9-methanonaphtho[1,8-ab]heptalen-2-yl)-2-fluoro-3-methyl-4-(trifluoromethyl)aniline] | 0.23 | 45.2 | – |
| Cc1c(F)c(N)cc(-c2nc3c4c(nc(OCC5CCC6CN(C)C(=O)CN56)nc4c2F)N2C[C@H]4CC[C@H](N4)[C@H]2[C@H](C)O3)c1C(F)(F)F (mixture of isomers) [Compound 124, 6-((((5S,5aS,6S,9R)-2-(5-Amino-4-fluoro-3-methyl-2-(trifluoromethyl)phenyl)-1-fluoro-5-methyl-5a,6,7,8,9,10-hexahydro-5H-4-oxa-3,10a,11,13,14-pentaaza-6,9-methanonaphtho[1,8-ab]heptalen-12-yl)oxy)methyl)-2-methylhexahydropyrrolo[1,2-a]pyrazin-3(4H)-one] | 1.74 | 619 | – |
| Cc1c(F)c(N)cc(-c2nc3c4c(nc(OC[C@@H]5CC[C@@H]6CC(F)(F)CCN65)nc4c2F)N2C[C@H]4CC[C@H](N4)[C@H]2[C@H](C)O3)c1C(F)(F)F (single isomer, unassigned) [119 (isomer 1)] | 4.38 | 787 | – |
| Cc1c(F)c(N)cc(-c2nc3c4c(nc(OC[C@@H]5CCC6CC(F)(F)CCN65)nc4c2F)N2C[C@H]4CC[C@H](N4)[C@H]2[C@H](C)O3)c1C(F)(F)F (single isomer, unassigned) [119 (isomer 2)] | 0.37 | 75 | – |
| Cc1c(F)c(N)cc(-c2nc3c4c(nc(OC[C@@]5(CCF)CCCN5C)nc4c2F)N2C[C@H]4CC[C@H](N4)[C@H]2[C@H](C)O3)c1C(F)(F)F (single isomer, unassigned) [127 (isomer 1)] | 0.14 | 17.9 | – |
| Cc1c(F)c(N)cc(-c2nc3c4c(nc(OC[C@]5(CCF)CCCN5C)nc4c2F)N2C[C@H]4CC[C@H](N4)[C@H]2[C@H](C)O3)c1C(F)(F)F (single isomer, unassigned) [127 (isomer 2)] | 0.19 | 37.7 | – |
| Cc1c(F)c(N)cc(-c2nc3c4c(nc(OC[C@@H]5CC[C@@H]6C[C@@H](C(=O)N(C)C)CCN65)nc4c2F)N2C[C@H]4CC[C@H](N4)[C@H]2[C@H](C)O3)c1C(F)(F)F (single isomer, unassigned) [133 (isomer 1)] | 0.12 | 13.6 | – |
| Cc1c(F)c(N)cc(-c2nc3c4c(nc(OC[C@@H]5CC[C@@H]6CC(C(=O)N(C)C)CCN65)nc4c2F)N2C[C@H]4CC[C@H](N4)[C@H]2[C@H](C)O3)c1C(F)(F)F (single isomer, unassigned) [133 (isomer 3)] | 0.14 | 23.3 | – |
| Cc1c(F)c(N)cc(-c2nc3c4c(nc(OC[C@@H]5CC[C@H]6C[C@H](C(=O)N(C)C)CCN56)nc4c2F)N2C[C@H]4CC[C@H](N4)[C@H]2[C@H](C)O3)c1C(F)(F)F (single isomer, unassigned) [133 (isomer 4)] | 0.08 | 2.3 | – |
| Cc1c(F)c(N)cc(-c2nc3c4c(nc(OC[C@]56COC[C@H]5CCN6C)nc4c2F)N2C[C@H]4CC[C@H](N4)[C@H]2[C@H](C)O3)c1C(F)(F)F (single isomer, unassigned) [134 (isomer 1)] | 0.19 | 39.4 | – |
| Cc1c(F)c(N)cc(-c2nc3c4c(nc(OC[C@]56COC[C@@H]5CCN6C)nc4c2F)N2C[C@H]4CC[C@H](N4)[C@H]2[C@H](C)O3)c1C(F)(F)F (single isomer, unassigned) [134 (isomer 2)] | 0.19 | 38.1 | – |
| Cc1c(F)c(N)cc(-c2nc3c4c(nc(OC[C@@]56CCCN5CCN(C)C6=O)nc4c2F)N2C[C@H]4CC[C@H](N4)[C@H]2[C@H](C)O3)c1C(F)(F)F (single isomer, unassigned) [137 (isomer 1)] | 2.31 | 283 | – |
| Cc1c(F)c(N)cc(-c2nc3c4c(nc(OC[C@]56CCCN5C[C@H](F)[C@@H]6F)nc4c2F)N2C[C@H]4CC[C@H](N4)[C@H]2[C@H](C)O3)c1C(F)(F)F (single isomer, unassigned) [143 (isomer 1)] | 0.22 | 28.1 | – |
| Cc1c(F)c(N)cc(-c2nc3c4c(nc(OC[C@@]5(CC(F)F)CCCN5C)nc4c2F)N2C[C@H]4CC[C@H](N4)[C@H]2[C@H](C)O3)c1C(F)(F)F (single isomer, unassigned) [150 (isomer 1)] | 0.18 | 27.5 | – |
| Cc1c(F)c(N)cc(-c2nc3c4c(nc(OC[C@]5(CC(F)F)CCCN5C)nc4c2F)N2C[C@H]4CC[C@H](N4)[C@H]2[C@H](C)O3)c1C(F)(F)F (single isomer, unassigned) [150 (isomer 2)] | 0.25 | 64.5 | – |
| Cc1c(F)c(N)cc(-c2nc3c4c(nc(OC[C@@H]5CC[C@H]6C[C@@H](F)CN56)nc4c2F)N2C[C@H]4CC[C@H](N4)[C@H]2[C@H](C)O3)c1C(F)(F)F (single isomer, unassigned) [152 (isomer 1)] | 0.1 | 15.7 | – |
| Cc1c(F)c(N)cc(-c2nc3c4c(nc(OC[C@@H]5CC[C@@H]6C[C@@H](F)CN65)nc4c2F)N2C[C@H]4CC[C@H](N4)[C@H]2[C@H](C)O3)c1C(F)(F)F (single isomer, unassigned) [152 (isomer 2)] | 3.23 | 526 | – |
| C[C@@H]1Oc2nc(-c3cc(N)c(F)c(F)c3CC(F)F)c(F)c3cc(OC[C@@H]4CC[C@H]5COCCN54)nc(c23)N2C[C@H]3CC[C@H](N3)[C@@H]12 [Compound 158, 4-(2,2-Difluoroethyl)-2,3-difluoro-5-((5S,5aS,6S,9R)-1-fluoro-13-(((6S,8aS)-hexahydro-1H-pyrrolo[2,1-c][1,4]oxazin-6-yl)methoxy)-5-methyl-5a,6,7,8,9,10-hexahydro-5H-6,9-epiminoazepino[2′,1′:3,4][1,4]oxazepino[5,6,7-ij][2,7-]naphthyridin-2-yl)aniline] | – | 121 | – |
| COC1(C)CN(CC2(COc3nc4c5c(nc(-c6cc(N)nc(C)c6C(F)(F)F)c(F)c5n3)O[C@@H](C)[C@@H]3[C@@H]5CC[C@H](CN43)N5)CC2)C1 [Compound 273, 4-((5S,5aS,6S,9R)-1-fluoro-12-((1-((3-methoxy-3-methylazetidin-1-yl)methyl)cyclopropyl)methoxy)-5-methyl-5a,6,7,8,9,10-hexahydro-5H-4-oxa-3,10a,11,13,14-pentaaza-6,9-methanonaphtho[1,8-ab]heptalene-2-yl)-6-methyl-5-(trifluoromethyl)pyridin-2-amine] | 0.29 | – | 17.1 |
| Cc1nc(N)cc(-c2nc3c4c(nc(OCC5(CN6CC(C(F)F)C6)CC5)nc4c2F)N2C[C@H]4CC[C@H](N4)[C@H]2[C@H](C)O3)c1C(F)(F)F [Compound 274, 4-((5S,5aS,6S,9R)-12-((1-((3-(difluoromethyl)108eptalene-1-yl)methyl)cyclopropyl)methoxy)-1-fluoro-5-methyl-5a,6,7,8,9,10-hexahydro-5H-4-oxa-3,10a,11,13,14-pentaaza-6,9-methanonaphtho[1,8-ab]heptalene-2-yl)-6-methyl-5-(trifluoromethyl)pyridin-2-amine] | 0.34 | – | 25.7 |
| CO[C@@H]1CCN(CC2(COc3nc4c5c(nc(-c6cc(N)nc(C)c6C(F)(F)F)c(F)c5n3)O[C@@H](C)[C@@H]3[C@@H]5CC[C@H](CN43)N5)CC2)C[C@@H]1F [Compound 275, 4-((5S,5aS,6S,9R)-1-fluoro-12-((1-(((3S,4R)-3-fluoro-4-methoxypiperidin-1-yl)methyl)cyclopropyl)methoxy)-5-methyl-5a,6,7,8,9,10-hexahydro-5H-4-oxa-3,10a,11,13,14-pentaaza-6,9-methanonaphtho[1,8-ab]heptalene-2-yl)-6-methyl-5-(trifluoromethyl)pyridin-2-amine] | 0.48 | – | 23.3 |
| Cc1nc(N)cc(-c2nc3c4c(nc(OCC5(CN6CCC(C(F)F)C6)CC5)nc4c2F)N2C[C@H]4CC[C@H](N4)[C@H]2[C@H](C)O3)c1C(F)(F)F (stereo partly drawn) [Compound 276, 4-((5S,5aS,6S,9R)-12-((1-((3-(difluoromethyl)pyrrolidin-1-yl)methyl)cyclopropyl)methoxy)-1-fluoro-5-methyl-5a,6,7,8,9,10-hexahydro-5H-4-oxa-3,10a,11,13,14-pentaaza-6,9-methanonaphtho[1,8-ab]heptalen-2-yl)-6-methyl-5-(trifluoromethyl)pyridin-2-amine] | 0.26 | – | 8.91 |
